Here are results for one compound from patent US9518041B2, “(+)-5-(3,4-difluorophenyl)-5-[(3-methyl-2-oxopyridin-1(2H)-yl)methyl]imidazolidine-2,4-dione and drug containing same” (KAKEN PHARMACEUTICAL CO., LTD., priority 2013, dated 2016).

SMILES strings stand for the structures.

Assay [1] deals with auricular oedema induced by TPA. Description: Inhibition test of auricular oedema induced by single application of TPA in mouse. In kind it is in vivo, BALB/c mice. Here is the method:
Auricular oedema was induced by applying 54 μmol/L TPA-acetone solution on both the inner and outer sides of the left ear of BALB/c mice (application volume of 54 μmol/L TPA-acetone solution is 10 μL for each side of the left ear (i.e. 1.08 nmol TPA/auricle)). For a non-induced group, acetone was similarly applied instead of the 54 μmol/L TPA-acetone solution. […] Auricle thickness was measured under ether anesthesia the day before TPA application and 6 hours after TPA application for evaluation of the auricular oedema inhibition effect of the test substance based on the increase in auricle thickness as an index.
The auricular oedema inhibition rate (%) of the test substance was calculated based on the following formula using (A) the average value of the increase in auricular thickness of the group administered with the test substance, (B) the average value of the increase in auricular thickness of the non-induced group, and (C) the average value of the increase in auricular thickness of the control group. […]
The auricular oedema inhibition rate (%) of etanercept was calculated based on the following formula using (B) the average value of the increase in auricular thickness of the non-induced group, (D) the average value of the increase in auricular thickness of the etanercept group, and (E) the average value of the increase in auricular thickness of the hIgG group. […]

The target of the next assay is T1, human MMP-1 (Homo sapiens, UniProt P03956).
T1 construct: purchased Calbiochem 444208
T1 sequence (P03956 100-469): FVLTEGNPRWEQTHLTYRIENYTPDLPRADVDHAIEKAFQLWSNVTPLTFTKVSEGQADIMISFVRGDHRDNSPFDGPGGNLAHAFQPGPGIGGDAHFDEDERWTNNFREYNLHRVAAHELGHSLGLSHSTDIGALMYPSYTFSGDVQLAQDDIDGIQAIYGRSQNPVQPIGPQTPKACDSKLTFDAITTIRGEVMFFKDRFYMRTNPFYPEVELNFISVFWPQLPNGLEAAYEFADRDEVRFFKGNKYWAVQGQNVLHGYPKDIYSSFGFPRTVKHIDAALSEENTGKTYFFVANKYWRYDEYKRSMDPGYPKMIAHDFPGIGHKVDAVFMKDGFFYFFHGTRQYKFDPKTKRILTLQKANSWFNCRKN
Description: MMP-1 inhibition test. In kind it is biochemical. The conditions noted are these: read-out: Inhibitory activity (IC50, nM) MMP-1. Here is the method: (§1) MMP inhibition tests can be carried out, for example, using a fluorescent synthetic substrate based on the methods described in Bickett et al. (D. Mark Bickett et al., Anal. Biochem., 1993, 212, 58-64) and Nagase et al. (H. Nagase et al., J. Biol. Chem., 1994, 269, 20952-20957). The method for each MMP inhibition test is shown below.
180 μL (100 ng) of human MMP-1 (Calbiochem #444208) was mixed with 20 μL of 10 mM p-amino phenyl mercuric acetate (APMA), and activated by reacting at 37° C. for 1 hour. 20 μL of the resultant enzyme solution was diluted to 90 μL with an assay buffer A. The mixture was added to 90 μL of a 20 μM fluorescent substrate (Dnp-Pro-Cha(β-cyclohexylalanyl)-Gly-Cys(Me)-His-Ala-Lys(Nma)-NH2) (SEQ ID NO: 2) prepared with an assay buffer B, and reacted at 37° C. for 5 hours. Enzyme activity was then determined by measuring with a fluorescence intensity meter (Labsystems, Fluoroskan Ascent) at an excitation wavelength of 355 nm and a measurement wavelength of 460 nm.
(§2) From the enzyme activity in the presence or the absence of the test substance, the inhibition rate was determined, and the 50% inhibitiory concentration (IC50) of the test substance was calculated.

In a further assay the target is T2, human MMP-13 (Homo sapiens, UniProt P45452).
T2 construct: purchased Calbiochem 444287
Description: MMP-13 inhibition test. In kind it is biochemical. The conditions noted are these: read-out: Inhibitory activity (IC50, nM) MMP-13. As to the method:
as §1
90 μL (130 ng) of human MMP-13 (Calbiochem #444287) was mixed with 10 μL of 10 mM APMA, and activated by reacting at 37° C. for 1 hour. 10 μL of the resultant enzyme solution was diluted to 90 μL with an assay buffer A. The mixture was added to 90 μL of a 20 μM fluorescent substrate (Dnp-Pro-Cha-Gly-Cys(Me)-His-Ala-Lys(Nma)-NH2) (SEQ ID NO: 2) prepared with an assay buffer B, and reacted at 37° C. for 4 hours. Enzyme activity was then determined by measuring with a fluorescence intensity meter (Labsystems, Fluoroskan Ascent) at an excitation wavelength of 355 nm and a measurement wavelength of 460 nm.
as §2

For orientation: IC50 means the midpoint of a concentration-inhibition curve. Consider `Cc1cccn(CC2(c3ccc(F)c(F)c3)NC(=O)NC2=O)c1=O` (single isomer, unassigned; (+)) [(+)-5-(3,4-difluorophenyl)-5-[(3-methyl-2-oxopyridin-1(2H)-yl)methyl]imidazolidine-2,4-dione], for which the “Auricular oedema inhibition rate (%)” value in assay [1] (BALB/c mice, topical 1 w/v % solution, 10 μL each side of left ear, 1 hour before TPA, auricle thickness 6 hours after TPA) is 62%. For the same compound, the “Etanercept ratio (inhibition rate of test substance / inhibition rate of etanercept)” value in assay [1] (etanercept 1 mg/mouse intravenously as positive control) worked out at 3.4. Further, the IC50 on human MMP-1 and at human MMP-13 was over 10000 nM in each case.
